Test results: patent US20060166901A1, “Compositions comprising O-acetylsalicyl derivatives of aminocarbohydrates and amino acids” (priority 2005, published 2006)

Experiments:
[1] = patients, recent studies; cited from earlier work
[2] = test system: osteoarthritis of both knees; assay: Oral administration to a subject with osteoarthritis of both knees, relief of knee pain and adverse reactions; assay type: in vivo, human; conditions: earlier treatment
Experimental: The subject took an oral dose of 100 mg N—(O-acetylsalicyl)-L-tyrosine ethyl ester.
Subject, weight 90 kg, had 4 year history of osteoarthritis of both knees which was confirmed by X-ray and MRI showing diminished articular space. Symptoms of pain upon walking and at rest, as well as tenderness to palpation, had been consistently present, varying in intensity from moderate to severe.
[…] […] The subject did intensive physical activities during the next 10 hours that consisted of farming manual labor that included climbing up and down the banks of a pond to cut off cattail weeds at root level, and manually carrying stalks up the pond bank to level ground. Other physical exertions included numerous mounting and demounting from a farm tractor that pulled a trailer containing cattail weeds to dumping sites.

[3] = nonsteroidal anti-inflammatory agents

SMILES	rates of heart attack (cardiac arrest) versus the control group [1]	relief of osteoarthritis symptoms (subject's history) [2, 3]	other results
Cc1ccc(-c2cc(C(F)(F)F)nn2-c2ccc(S(N)(=O)=O)cc2)cc1 [celecoxib]	higher rates of heart attack		
CS(=O)(=O)c1ccc(C2=C(c3ccccc3)C(=O)OC2)cc1 [rofecoxib, Rofecoxib]	higher rates of heart attack		
COc1ccc2cc([C@H](C)C(=O)O)ccc2c1 [naproxen]		had not been relieved	
CC(C)Cc1ccc(C(C)C(=O)O)cc1 (centres unmarked) [ibuprofen]		had not been relieved	
C[C@]12C=CC(=O)C=C1CC[C@@H]1[C@@H]2C(=O)C[C@@]2(C)[C@H]1CC[C@]2(O)C(=O)CO [prednisone]			relief of osteoarthritis symptoms (subject's history) ([2]; oral, 10-30 mg daily): relieved incompletely
